Experimental data: ChEMBL document CHEMBL4699572, “Identification of Antifungal Bisphosphocholines from Medicinal Gentiana Species” (2020)
Activity calls are given as the source filed them. The rule behind the calls is not given here.

Legend:
Assay type in all cases: functional
[1] = test system: Cryptococcus neoformans; assay: Antifungal activity against Cryptococcus neoformans ATCC 90113 assessed as reduction in microbial growth after 72 hrs by CLSI based method
[2] = test system: Candida albicans; assay: Antifungal activity against Candida albicans ATCC 90028 assessed as reduction in microbial growth after 18 to 24 hrs by CLSI based method; details: time hrs 18-24
[3] = test system: Aspergillus fumigatus; assay: Antifungal activity against Aspergillus fumigatus ATCC 204305 assessed as reduction in microbial growth after 72 hrs by CLSI based method
[4] = test system: Nakaseomyces glabratus; assay: Antifungal activity against Candida glabrata ATCC 90030 assessed as reduction in microbial growth after 18 to 24 hrs by CLSI based method; details: time hrs 18-24

MIC [2] [µg/mL] | MIC [4] [µg/mL] | SMILES | Activity [1] | Activity [2] | Activity [3] | Activity [4] | MIC [1] [µg/mL] | MIC [3] [µg/mL]
– | – | C[N+](C)(C)CCOP(=O)([O-])OCCCCCCCCCCCCCCCCCCCCCCCCOP(=O)([O-])OCC[N+](C)(C)C | inactive | inactive | inactive | inactive | – | –
– | – | C[N+](C)(C)CCOP(=O)([O-])OCCCCCCCCCCCCCCCCCCCCCCCOP(=O)([O-])OCC[N+](C)(C)C | inactive | inactive | inactive | inactive | – | –
– | – | C[C@@H]1[C@H](O)[C@@H](C)/C=C/C=C/C=C/C=C/C=C/C=C/C=C/[C@H](O[C@@H]2O[C@H](C)[C@@H](O)[C@H](N)[C@@H]2O)C[C@@H]2O[C@](O)(C[C@@H](O)C[C@@H](O)[C@H](O)CC[C@@H](O)C[C@@H](O)CC(=O)O[C@H]1C)C[C@H](O)[C@H]2C(=O)O [AMPHOTERICIN B] | – | – | – | – | 0.63 | 2.5
– | – | C[N+](C)(C)CCOP(=O)([O-])OCCCCCCCCCCCCCCCCCCCCCOP(=O)([O-])OCC[N+](C)(C)C | inactive | inactive | inactive | inactive | – | –
10 | 5 | C[N+](C)(C)CCOP(=O)([O-])OCCCCCCCCCCCCCCCCCCCCCCOP(=O)([O-])OCC[N+](C)(C)C | – | – | – | – | 0.63 | 1.25
